According to PubChem BioAssay (NCI):
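48-hour exposure; five concentrations; linearly interpolated endpoints. The concentration for 50% growth inhibition is given as GI50. The concentration for full growth arrest is given as TGI.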

What was measured:
Experiment in all cases: growth of human tumour cells (NCI), 48 h
DU-145 prostate = test system: DU-145 prostate
HCT-15 colon = test system: HCT-15 colon
KM12 colon = test system: KM12 colon
MCF7 breast = test system: MCF7 breast
MDA-N = test system: MDA-N
NCI-H460 lung = test system: NCI-H460 lung
NCI-H522 lung = test system: NCI-H522 lung
OVCAR-5 ovarian = test system: OVCAR-5 ovarian
SK-MEL-5 melanoma = test system: SK-MEL-5 melanoma
NCI-H226 lung = test system: NCI-H226 lung

Row | SMILES | TGI (DU-145 prostate) | TGI (HCT-15 colon) | TGI (KM12 colon) | TGI (MCF7 breast) | TGI (MDA-N) | TGI (NCI-H460 lung) | TGI (NCI-H522 lung) | TGI (OVCAR-5 ovarian) | TGI (SK-MEL-5 melanoma) | TGI (NCI-H226 lung) | GI50 (DU-145 prostate) | GI50 (HCT-15 colon) | GI50 (KM12 colon) | GI50 (MCF7 breast) | GI50 (NCI-H460 lung) | GI50 (NCI-H522 lung) | GI50 (OVCAR-5 ovarian) | GI50 (SK-MEL-5 melanoma)
1 | CC1(O)C(=O)OC2CC([C@]3(O)CCC4[C@@H]5C[C@H]6O[C@]67[C@@H](O)C=CC(=O)[C@]7(C)C5CC[C@@]43C)C1(C)C2 (stereo not given in full) | 75.2 µM | 51.9 µM | > 64.1 µM | > 33 µM | 17.9 µM | > 80.5 µM | 4.85 µM | 74.1 µM | 45.3 µM |  |  |  |  |  |  |  |  | 
2 | CN(CCN(C)C(=O)CCn1ccc(=O)[nH]c1=O)C(=O)CCn1ccc(=O)[nH]c1=O |  | > 100 µM | > 100 µM |  |  | > 100 µM | > 100 µM | > 100 µM | > 100 µM | > 100 µM |  |  |  |  |  |  |  | 
3 | COc1cc(C2(C)SCCCS2)c(I)c(OC)c1OC |  | > 100 µM | > 100 µM |  |  | > 100 µM | > 100 µM | > 100 µM | > 100 µM | > 100 µM |  |  |  |  |  |  |  | 
4 | CCOC(=O)N1C(=S)C(C(=O)OC)(C(=O)OC)N=C1C | > 100 µM | > 100 µM | > 100 µM | > 100 µM | > 100 µM | > 100 µM |  | > 100 µM | > 100 µM | > 100 µM |  |  |  |  |  |  |  | 
5 | CCCCCCCCCCCCCCCCNc1ccn(C2CC(OP(=O)(O)OCC3OC(n4cc(CC)c(=O)[nH]c4=O)CC3O)C(CO)O2)c(=O)n1 (stereo not given) | > 100 µM | 72.5 µM | 29.6 µM | > 100 µM |  |  | > 100 µM | 62.8 µM |  | > 100 µM |  |  |  |  |  |  |  | 
6 | CN(C)c1ccc(/C=C2\C[C@H]3[C@@H]4CCc5cc(O)ccc5[C@H]4CC[C@]3(C)C2=O)cc1 | > 100 µM | > 100 µM | > 100 µM | > 100 µM | > 100 µM | > 100 µM |  | > 100 µM | > 100 µM | 67.3 µM |  |  |  |  |  |  |  | 
7 | CCC1CCC2c3c([nH]c4ccccc34)C3C(=O)N(c4ccc(OC)cc4)C(=O)C3C2C1 (stereo not given) | > 100 µM | > 100 µM | > 100 µM | > 100 µM | > 100 µM | > 100 µM | > 100 µM |  | > 100 µM | > 100 µM |  |  |  |  |  |  |  | 
8 | CC(=O)Nc1ccc(/C=C(\NC(=O)c2ccccc2)C(=O)NNS(=O)(=O)c2ccc(C)cc2)cc1 |  | 41.1 µM | > 100 µM |  |  | > 100 µM | > 100 µM | > 100 µM | > 100 µM | > 100 µM |  |  |  |  |  |  |  | 
9 | CC1(C)Oc2ccc3c(=O)c4ccccc4oc3c2C1C(=O)O (stereo not given) | > 100 µM |  |  | > 100 µM | > 100 µM |  | > 100 µM | > 100 µM | > 100 µM | > 100 µM |  |  |  |  |  |  |  | 
10 | c1ccc(-c2[nH]c(-c3ccccc3)c(-c3cnccn3)c2-c2cnccn2)cc1 |  | > 100 µM | > 100 µM |  |  | > 100 µM | > 100 µM | > 100 µM | > 100 µM | > 100 µM |  |  |  |  |  |  |  | 
11 | COC(=O)C(C(=O)OC)C1CC(=O)c2c(Br)sc(Br)c21 (stereo not given) | 34.8 µM | 21.6 µM | > 100 µM | 73.2 µM | > 100 µM | 40.4 µM |  | 28.9 µM | 28.3 µM | 53.4 µM |  |  |  |  |  |  |  | 
12 | CC(=O)[C@H]1CCC2[C@@H]3CC=C4C(O)C(OS(=O)(=O)O)CC[C@]4(C)C3CC[C@@]21C (stereo not given in full) |  | > 100 µM | > 100 µM | > 100 µM |  | > 100 µM | > 100 µM | > 100 µM | > 100 µM | > 100 µM |  |  |  |  |  |  |  | 
13 | CCOC(=O)c1c(-c2ccc(OC)c(O)c2)c(C#N)c(=S)n(C2OC(CO)C(O)C(O)C2O)c1-c1ccccc1 (stereo not given) | > 100 µM | > 100 µM | > 100 µM |  | > 100 µM | > 100 µM |  |  | > 100 µM | > 100 µM |  |  |  |  |  |  |  | 
14 | O=C(O)CCCc1ccc2c(c1)CC1(C2)Cc2ccc(CCCC(=O)O)cc2C1 |  | > 100 µM | > 100 µM | > 100 µM | > 100 µM |  | > 100 µM | > 100 µM | > 100 µM | > 100 µM |  |  |  |  |  |  |  | 
15 | Cc1ccc2cnc(N)c(C#Cc3cncc(C(=O)Nc4ccc(CN5CCN(C)CC5)c(C(F)(F)F)c4)c3)c2c1 | 1.03 µM | 0.731 µM | 0.538 µM | 0.718 µM |  | 0.819 µM | 1.02 µM | 1.24 µM | 1.51 µM |  | 0.387 µM | 0.174 µM | 0.005 µM | 0.105 µM | 0.212 µM | 0.249 µM | 0.579 µM | 0.813 µM
16 | CC(=O)O[C@H]1C(=O)[C@@]2(C)C(C(OC(=O)c3ccccc3)[C@]3(O)CC(OC(=O)C(O)C(NC(=O)c4ccccc4)c4ccc(C)cc4)C(C)=C1C3(C)C)[C@]1(OC(C)=O)CO[C@@H]1C[C@@H]2O (stereo not given in full) |  | 8.01 µM | 9.9 µM |  |  | > 25 µM | 0.0396 µM | 0.237 µM |  |  |  |  |  |  |  |  |  | 
17 | Cc1nn(-c2ccccn2)c2c1C(SC#N)=C(C=O)CC2 | 28.2 µM | 34 µM | 32.7 µM | 24.2 µM | 38.6 µM | 34.9 µM | 46 µM | 20.7 µM | 28.2 µM |  |  |  |  |  |  |  |  | 
18 | CCOC(=O)c1cn(C)nc1N/C(C)=C\C(=O)c1ccccc1 | > 100 µM | > 100 µM | > 100 µM | > 100 µM |  | > 100 µM | > 100 µM | > 100 µM | > 100 µM | > 100 µM |  |  |  |  |  |  |  | 
19 | COc1cccc(C2CC(=O)c3cccn32)c1 (stereo not given) | > 100 µM | > 100 µM | > 100 µM | > 100 µM |  |  | > 100 µM | > 100 µM |  | > 100 µM |  |  |  |  |  |  |  | 
20 | C=C1CC(OC)(C(O)C(=O)N[C@H]2OCO[C@H]3C2O[C@H](C[C@H](O)COC)C(C)(C)C3OC)O[C@H](C)[C@@H]1C (stereo not given in full) |  | > 0.00772 µM |  | > 0.00772 µM |  | > 0.00772 µM | > 0.00772 µM | > 0.00772 µM | > 0.00772 µM | > 0.00772 µM |  |  |  |  |  |  |  | 
21 | C=C(C(=O)OC)[C@H]1CC/C(C)=C/CC/C(C)=C/CC[C@@]2(C)O[C@@H]2C1 | 58.2 µM | 31.7 µM | 37.6 µM | 37.8 µM | 36.4 µM |  | 38.5 µM | 48.2 µM | 22 µM | 44.4 µM |  |  |  |  |  |  |  | 
22 | O=C(NCCCCNCCCNC(=O)OCc1ccccc1)OCc1ccccc1 | > 100 µM | > 100 µM | 98.5 µM | 71.2 µM |  | 69 µM | 39.2 µM | > 100 µM | 32.5 µM | > 100 µM |  |  |  |  |  |  |  | 
23 | O=S(=O)(O)c1ccc(Nc2ccnc3cc(Cl)ccc23)cc1 | > 100 µM | > 100 µM | > 100 µM | > 100 µM | > 100 µM |  | > 100 µM | > 100 µM | > 100 µM | > 100 µM |  |  |  |  |  |  |  | 
